Test results reported in US6703536B2, “Disposable absorbent article having a skin care composition containing an enzyme inhibitor” (The Procter & Gamble Company, priority 1998, dated 2004).
Square brackets hold non-standard residues; d marks the D form. Peptide text beside a SMILES is read from it. * marks the point of attachment. Sta = CC(C)C[C@H](N)[C@@H](O)CC(=O)O; Isovaleryl = CC(C)CC(=O)*

B1: Soybean trypsin inhibitor: plant-derived trypsin inhibitor (protein, UniProt P01070 25-205, looked up)
Trypsin inhibitor A: DFVLDNEGNPLENGGTYYILSDITAFGGIRAAPTGNERCPLTVVQSRNELDKGIGTIISSPYRIRFIAEGHPLSLKFDSFAVIMLCVGIPTEWSVVEDLPEGPAVKIGENKDAMDGWFRLERVSDDEFNNYKLVFCPQQAEDDKCGDIGISIDHDDGTRRLVVSKNKPLVVQFQKLDKESL

These molecules were tested against protease activity in feces (assay: General Fecal Enzymes Method (casein-resorufin cleavage)). Conditions: fecal suspension, casein-resorufin substrate, pH 7.8, 37° C. for 60 minutes.
Type: biochemical, infant
Description: Pooled infant feces (at least five different samples) are collected in a manner to keep them free of urine and contamination and mixed with water to obtain a weight by weight (w/w) mixture (e.g., 1:50 w/w). This mixture is then mixed thoroughly to obtain a homogeneous suspension by homogenization or sonication. […] (Also, to ensure complete linearity the final absorbance should never exceed 1.5 OD405 units). If the activity of the pooled infant feces is outside this range, it is not possible to accurately determine IC50 values for putative protease inhibitors. However, the range of enzyme activity may be adjusted by increasing or decreasing the dilution factor accordingly for each enzyme. If this is not possible, a different group of subjects should be used to obtain the sample pool.
The general method described above for obtaining a sample of feces suitable for use in Specific Fecal Enzyme Methods can be easily adapted by one skilled in the art to obtain appropriate samples of feces suitable for use in the General Fecal Enzymes Method listed below without undue experimentation.
To test the efficacy of protease inhibitors against the protease activity in feces, 50 μL of inhibitor and 50 μL of fecal suspension are added to a 1.5 mL microcentrifuge tube. The microcentrifuge tube is mixed by inversion and incubated at 25° C. for 45 minutes. Then, 50 μL of protease buffer (200 mM TRIS buffer containing 20 mM CaCl2, pH 7.8) is added to the microcentrifuge tube. The microcentrifuge tube is again mixed by inversion and incubated at 25° C. for 45 minutes. […] The microcentrifuge tube is again mixed by inversion and incubated at 37° C. for 60 minutes for the substrate cleavage reaction to take place. Then, 480 μL of trichloroacetic acid (5% w/v) is added to stop the reaction and precipitate any unreacted casein-resorufin. The microcentrifuge tube is mixed by inversion incubated at 37° C. for 15 minutes. […] Then, 400 μL of the supernatant is added to 600 μL of assay buffer (0.5 M TRIS, pH 8.8) in a cuvette. […] The same procedure is repeated without the putative inhibitor. […] Before the start of the reaction, A and Ai are nearly zero. […] The rates, vi and v, and the inhibitor concentration [I] are used to calculate IC50 according to the equation expressed above.

Point of comparison: `CC(C)C[C@H](NC(=O)[C@@H](NC(=O)N[C@@H](Cc1ccccc1)C(=O)O)[C@@H]1CCN=C(N)N1)C(=O)N[C@H](C=O)Cc1ccccc1` [Chymostatin], IC50 64 µM. Against it:
- CC(=O)N[C@@H](CC(C)C)C(=O)N[C@@H](CC(C)C)C(=O)N[C@H](C=O)CCCNC(=N)N [Leupeptin] — higher, > 320 µM
- CC(C)CC(=O)N[C@H](C(=O)N[C@H](C(=O)N[C@@H](CC(C)C)[C@@H](O)CC(=O)N[C@@H](C)C(=O)N[C@@H](CC(C)C)[C@@H](O)CC(=O)O)C(C)C)C(C)C [Pepstatin A] (Isovaleryl-VV[Sta]A[Sta]-OH) — not separable, > 32 µM
- B1 — 13-fold lower, 4.9 µM
